{"source": "patent US9566347B2", "about": "“Peptides and methods using same” (The Trustees of the University of Pennsylvania, priority 2011, dated 2017)", "key": {"[1]": {"biological_target": "hSIRP-alpha (Homo sapiens, UniProt P78324)", "sequence (P78324 31-373 limits assumed)": "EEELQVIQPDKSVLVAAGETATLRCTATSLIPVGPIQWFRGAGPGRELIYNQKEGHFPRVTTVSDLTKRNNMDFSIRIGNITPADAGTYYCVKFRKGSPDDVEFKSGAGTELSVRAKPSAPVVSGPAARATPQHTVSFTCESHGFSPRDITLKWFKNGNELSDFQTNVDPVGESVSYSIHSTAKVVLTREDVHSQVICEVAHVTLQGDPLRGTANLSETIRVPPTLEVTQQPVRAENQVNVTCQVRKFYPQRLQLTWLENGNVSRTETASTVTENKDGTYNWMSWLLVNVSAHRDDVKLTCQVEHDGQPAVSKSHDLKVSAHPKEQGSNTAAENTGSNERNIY", "assay": "Soluble peptide inhibition of hSIRP-alpha binding to polypeptide beads", "description": "(§1) Synthesis of the three designs and Scrambled-peptides with or without biotin attached via either an aminohexanoic acid linker (C6) or a PEG linker, enabled functional testing of binding to soluble hSIRP-alpha as well as inhibition of nanobead phagocytosis. […] The 10-aa FG-hairpin was synthesized without attachment of biotin for use as a soluble inhibitor of hSIRP-alpha binding to polypeptide beads. […] While conformational constraints the minimal FG-hairpin combined with the likely lack of a stable structure underscores the utility of at least some backbone flexibility."}, "[2]": {"biological_target": "soluble hSIRP-alpha (Homo sapiens, UniProt P78324)", "sequence (P78324 31-373 limits assumed)": "as above", "assay": "Binding of polypeptide-coated beads to soluble hSIRP-alpha by flow cytometry", "description": "FIG. 4 illustrates binding and phagocytosis inhibition of peptides in relation to human-SIRP-alpha. Affinity of polypeptides coated beads binding to soluble hSIRP-alpha based on flow cytometry. Saturation binding fit gave the indicated dissociation constant, Kd.\nas §1"}, "[3]": {"system": "THP-1 cells", "assay": "Phagocytosis assay of peptide-coated opsonized nanobeads in THP-1 cell line", "format": "cell-based", "details": "opsonized beads", "experimental": "FIG. 3A illustrates a two color experiment in which nanoparticles (or cells) are mixed and injected into the same mouse after labeling with or without the peptide with distinct fluorescent red dye (PKH26) or far-red (DiD). 50 μl of blood was periodically sampled from the eyes, and flow cytometry analysis of the decay in nanoparticle (or cell) numbers was used to calculate the time-dependent ‘persistence ratio’ in each mouse. Colors were labeled as 1 and 2. FIG. 3B is a graph illustrating an experiment where 160 nm polystyrene beads coated with streptavidin were bound to biotinylated versions of synthetic FG-peptide, or else negative controls of either scrambled peptide or PEG. Beads were opsonized with anti-streptavidin and then injected. n=6 mice. FIG. 3C is a graph illustrating the inverse correlation between the in vivo ratio of beads with or without peptide at 35 min and the inhibition of phagocytosis in vitro at 45 min for 160 nm beads. FIG. 3D is a graph illustrating macrophage SIRPa1 tyrosine phosphorylation upon contact with FG-peptide bound to opsonized beads and phagocytosed by THP-1 cells. From cell lysates, SIRP-alpha was immunoprecipitated and immunoblotted for quantitation of phosphotyrosine per total SIRP-alpha (n=3). Avg.±SEM for all results.\nFIG. 4 illustrates binding and phagocytosis inhibition of peptides in relation to human-SIRP-alpha. […]"}, "[4]": {"assay": "Two-color persistence of opsonized nanobeads in circulation of NSG mice", "format": "in vivo", "details": "160 nm opsonized streptavidin polystyrene beads", "method": "FIG. 3A illustrates a two color experiment in which nanoparticles (or cells) are mixed and injected into the same mouse after labeling with or without the peptide with distinct fluorescent red dye (PKH26) or far-red (DiD). 50 μl of blood was periodically sampled from the eyes, and flow cytometry analysis of the decay in nanoparticle (or cell) numbers was used to calculate the time-dependent ‘persistence ratio’ in each mouse. Colors were labeled as 1 and 2. FIG. 3B is a graph illustrating an experiment where 160 nm polystyrene beads coated with streptavidin were bound to biotinylated versions of synthetic FG-peptide, or else negative controls of either scrambled peptide or PEG. Beads were opsonized with anti-streptavidin and then injected. n=6 mice. […] Avg.±SEM for all results."}, "[5]": {"system": "spleen macrophages", "details": "NSG mice, near-infrared particles", "from_the_text": "To assess whether the particles had been taken up by spleen macrophages in NSG mice, tissue sections were immunostained for macrophages and imaged by fluorescence microscopy."}}, "note": "pKd, pKi: −log10 of the molar value. Positions of bridges follow the written chain, without caps; N, C: chain ends. Residues, ends and D or L forms follow the SMILES beside them. No end group written: not given here.", "data": [{"compound": "CC(C)C[C@H](NC(=O)[C@H](CCC(=O)O)NC(=O)[C@@H](NC(=O)[C@@H](NC(=O)[C@@H](N)CCC(=O)O)C(C)C)[C@@H](C)O)C(=O)N[C@H](C(=O)N[C@@H](CCCNC(=N)N)C(=O)N[C@@H](CCC(=O)O)C(=O)NCC(=O)N[C@@H](CCC(=O)O)C(=O)O)[C@@H](C)O", "note": "[FG-hairpin, EVTELTREGE] (H-EVTELTREGE-OH; N-terminus and C-terminus assumed)", "values": [{"measurement": "pKi", "setting": "[1]", "value": "6.70 to 7.00"}]}, {"compound": "CEVTELTREGEC (disulfide 1-12 (inferred)) [FG-SS-peptide, 12-aa peptide with Cys substitution intended to disulfide-stabilize the β-hairpin]", "values": [{"measurement": "affinity / binding to hSIRP-alpha (in words)", "setting": "[2]; peptide-coated beads, soluble hSIRP-alpha", "value": "no significant affinity"}, {"measurement": "inhibition of nanobead phagocytosis", "setting": "[3]", "value": "no statistically significant inhibition of phagocytosis"}]}, {"compound": "GNYTCEVTELTREGETIIELK [FG-peptide]", "values": [{"measurement": "circulation of nanoparticles", "setting": "[4]", "value": "prolong the circulation of nanoparticles"}, {"measurement": "pKd", "setting": "[2]; saturation binding fit, biotinylated peptide on streptavidin beads, C6 or PEG linker, read-out: affinity for SIRP-alpha (Kd)", "value": "6.80 to 6.96"}, {"measurement": "particle uptake, whole organ imaging", "setting": "[5]", "value": "reducing but not eliminating uptake"}]}]}
